Assay results reported in US9493466B2, “Treatment of cancer with TOR kinase inhibitors” (Signal Pharmaceuticals, LLC, priority 2011, dated 2016).

System: U87MG tumors
Assay: U87MG human glioblastoma xenograft model (Compound 1)
Format: in vivo, SCID mice
Details: positive control, 4 mg/kg Q3D IP, 18 days
Method: U87MG Human Glioblastoma Xenograft Model (Compound 1). Efficacy Studies: Groups of female SCID mice bearing U87MG tumors (n=8-10/group) were dosed orally with vehicle or Compound 1 throughout the study, starting when tumor volumes reached approximately 200 mm^3. The twice daily (BID) dose groups were dosed with a 10-hour separation between morning and evening doses. In the positive control group, rapamycin was administered Q3D via intraperitoneal (IP) route. At the end of each study, plasma and/or tumor samples were collected.
Cell Line and Culture. U87MG cell line was obtained from American Tissue Culture Collection (ATCC) (Gaithersberg, Md.) and grown in growth medium containing MEM, 2 mM L-glutamine, 0.1 mM non-essential amino acids and 1 mM sodium pyruvate and 10% fetal bovine serum (FBS). The cells were detached from tissue culture flasks using trypsin-EDTA. After centrifugation, the cell pellets were suspended in phosphate buffered saline (PBS) and counted using a hemocytometer. The final volume was adjusted to 5×10^6 cells/0.1 mL of PBS.
Tumor Cell Inoculation. Mice were anesthetized with inhaled isoflurane and then inoculated with U87MG tumor cells subcutaneously on the right hind leg with 0.1 mL of a single cell suspension in PBS using a sterile 1 mL syringe fitted with a 26 gauge needle. Following inoculation, the mice were returned to microisolator cages
Randomization of Animals. Following inoculation, tumors were allowed to grow to about 200 mm^3 prior to randomization. The typical number of days required for tumors to reach 200 mm^3 was 14-15 days. The tumor of each animal was measured and animals with tumors ranging between 175-250 mm^3 were included in the study. Animals from the pool were then distributed randomly into various cages and the cages were randomly assigned to vehicle, positive control, or test article groups. All of the mice were tagged with metal ear tags on the right ear.
Test Article Preparation and Administration. Suspensions of Compound 1 were prepared in aqueous 0.5% CMC and 0.25% Tween-80. The formulations were homogenized using a Teflon™ pestle and mortar (Potter-Elvehjem tissue grinder). Between the doses, the formulated compound was stored under constant stirring using a magnetic stirrer at 4° C. in the dark. The test article and vehicle were administered by oral gavage. The positive control, rapamycin, was prepared as solution in 2% ethanol, 45% polyethyleneglycol 400, and 53% saline and administered by IP injection. Sterile syringes and gavage needles were used for compound administration. All of the procedures including injections were done in biosafety cabinets disinfected with 70% ethanol prior to use.
Tumor Measurements. Tumor volumes were determined prior to the initiation of treatment and were considered as the starting volumes. Thereafter, tumors were measured twice a week for the duration of the study. The long and short axes of each tumor were measured using a digital caliper in millimeters. Tumor volumes were calculated using the formula: width^2×length/2. The tumor volumes were expressed in cubic millimeters (mm^3).
Tumor Growth Delay (TGD) Calculations. Tumor growth delay is the difference in days for treated versus control tumors to reach a volume of 1000 mm^3. The TGD was calculated from the data plotted in a graph format.
Body Weight Measurements. Initial body weights were recorded prior to the initiation of treatment using a digital scale. The percent body weight change during the course of the study was calculated using initial body weight measurements. Body weights of each animal were measured twice a week at the same time as the tumor measurements. Body weights were measured more frequently if significant decreases were noted during the course of the study.

CO[C@H]1C[C@@H]2CC[C@@H](C)[C@@](O)(O2)C(=O)C(=O)N2CCCC[C@H]2C(=O)O[C@H]([C@H](C)C[C@@H]2CC[C@@H](O)[C@H](OC)C2)CC(=O)[C@H](C)/C=C(\C)[C@@H](O)[C@@H](OC)C(=O)[C@H](C)C[C@H](C)/C=C/C=C/C=C/1C [rapamycin, reference compound]
change in body weight: No significant change
